Assay results as given in patent US20200308192A1, “NOVEL THIAZOLO[5,4-D]PYRIMIDINE DERIVATIVES AS INVERSE AGONISTS OF A2A ADENOSINE RECEPTORS” (Universita degli Studi di Ferrara, priority 2016, published 2020).
Like-named read-outs stand apart in the source and are kept apart here.

Legend:
[1] = tested on: breast cancer cells MRMT-1; test: Cell proliferation assay (DELFIA BrdU); assay type: cell-based; conditions: 48 hours; for Effect on CGS 21680-induced proliferation of cancer cells: MRMT-1, compound 100 nM pre-treatment, CGS 21680 100 nM
Source text: For the experiments of cellular proliferation, the DELFIA® kit was used and a multimode plate reader Ensight® from PerkinElmer. The DELFIA® (dissociation-enhanced lanthanide fluorescence immunoassay) assay is based on Time-Resolved Fluorescence (TRF) and on the incorporation of the 5-bromo-2-deoxyuridine (BrdU) in the DNA filaments recently synthesised by the proliferating cells seeded on microplates. The incorporated BrdU is detected by using a monoclonal antibody conjugated with europium, a long-lived chelated lanthanide, and the fluorescence measured is proportional to the synthesis of DNA in the cells population present in each well. The MRMT-1 cells, breast cancer cells, were pre-treated with some of the antagonists under evaluation at the concentration of 100 nM (compounds 1, 5, 6, 7, 10 of the present invention) for 30 minutes, then stimulated with CGS 21680 100 nM and after 30 minutes the solution of BrdU (10 μl/well) was added. At the end of the incubation period of 48 hours 100 μl/well of Anti-BrdU-Eu (0.5 μg/ml) were added and the cells were incubated for 120 minutes at room temperature. After 4 washings, 200 μl of DELFIA® stimulator were added at room temperature for 15 minutes and the Eu-fluorescence was detected by means of the Ensight® reader from Perkin Elmer (Perkin Elmer, Milan, Italy).

[2] = molecular target: T1, human adenosine A3 receptor (Homo sapiens, UniProt P0DMS8); test: Competition binding, [125I]-ABMECA, hA3 CHO membranes; conditions: mean ± SEM
T1 construct: expressed in transfected cells; host or cells: CHO cells (membrane preparation)
T1 sequence (P0DMS8 1-318): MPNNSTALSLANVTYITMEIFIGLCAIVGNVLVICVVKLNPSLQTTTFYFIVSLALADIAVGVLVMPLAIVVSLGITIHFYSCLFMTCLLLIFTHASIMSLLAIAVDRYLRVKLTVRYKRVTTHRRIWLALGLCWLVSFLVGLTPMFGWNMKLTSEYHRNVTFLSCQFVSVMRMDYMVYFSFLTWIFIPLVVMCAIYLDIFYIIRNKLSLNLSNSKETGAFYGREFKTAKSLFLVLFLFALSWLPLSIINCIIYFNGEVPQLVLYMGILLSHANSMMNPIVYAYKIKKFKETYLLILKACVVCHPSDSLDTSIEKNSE

[3] = molecular target: T2, human adenosine A2A receptor (Homo sapiens, UniProt P29274); test: Competition binding, [3H]-ZM 241385, hA2A CHO membranes
[4] = molecular target: T3, human adenosine A2B receptor (Homo sapiens, UniProt P29275); test: cAMP assay, inhibition of NECA-stimulated cAMP levels in hA2B CHO cells; conditions: read-out: Receptor hA2B IC50; cAMP stimulated by NECA (100 nM); mean ± SEM
T3 sequence (P29275 1-332): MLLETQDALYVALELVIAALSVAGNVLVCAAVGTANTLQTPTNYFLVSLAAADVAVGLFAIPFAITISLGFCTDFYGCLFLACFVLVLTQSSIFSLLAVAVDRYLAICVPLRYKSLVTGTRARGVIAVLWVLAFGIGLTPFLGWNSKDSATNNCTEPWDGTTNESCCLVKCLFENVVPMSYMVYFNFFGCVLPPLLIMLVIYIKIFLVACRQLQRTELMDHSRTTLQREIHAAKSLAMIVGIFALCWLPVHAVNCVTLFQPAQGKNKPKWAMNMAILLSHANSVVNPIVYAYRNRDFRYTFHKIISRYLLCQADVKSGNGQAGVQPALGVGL

Female CD1 mice [5] = test: Writhing test (acetic acid-induced abdominal constrictions); assay type: in vivo; conditions: for Dose-response curve, Writhing Test: P<0.001, one-way ANOVA
Procedure: (§1) Female CD1 mice (22-24 g) were obtained from Charles River (Milano, Italia). The animals were kept under standard environmental temperature conditions (22±2° C.) and under moisture-controlled conditions with 12 hours light/dark cycle and food and water ad libitum. The animals were acclimated to the laboratory settings for at least 1 hour before testing and were used only once throughout the experiments. All the procedures used in the present study were carried out in accordance with the European Communities Council Directives (86/609/EEC) and the National Laws and Policies (D.L.116/92) after authorization from the Italian Ministry for Health (4/2014-B). In addition, the experimental procedures were in agreement with the current guidelines for the care of laboratory animals and the ethical guidelines for investigations of experimental pain in conscious animals (Couto M. Methods Mol Biol 2011; 770:579-599).
The acetic acid-induced writhing response was performed after intraperitoneal injection of 10 ml/Kg of 0.6% acetic acid solution. The response to the abdominal constrictions induced by acetic acid was evaluated after the intraperitoneal injection of 10 ml/kg of a 0.6% solution of acetic acid. The compounds under evaluation were dissolved in DMSO and then diluted in a saline solution. The carrier consists of saline solution and 5% of DMSO. A writhe is indicated by stretching of the abdomen followed by the extension of the hind limbs. The animals (8 mice per group) were placed singly in a glass cylinder and the number of writhing episodes of abdominal contractions was counted in a 30 minutes period. The compounds were administered intraperitoneally 15 minutes before injection of acetic acid solution.
(§2) The statistical analysis of the data was performed using ANOVA followed by Dunnett's test. […] KH and KL were obtained by using a two sites binding model and Graph PAD Prism (San Diego, Calif., USA). The values of IC50 obtained in the cAMP assays were calculated by non-linear regression analysis using the equation for a sigmoid concentration-response curve. All data are expressed as the mean±SEM of four independent experiments each performed in duplicate for in vitro assays and n=8-10 mice/group for in vivo assays.

[6] = molecular target: T4, human adenosine A1 receptor (Homo sapiens, UniProt P30542); test: Competition binding, [3H]-DPCPX, hA1 CHO membranes; conditions: read-out: Receptor hA1 Ki, mean ± SEM
T4 sequence (P30542 1-326): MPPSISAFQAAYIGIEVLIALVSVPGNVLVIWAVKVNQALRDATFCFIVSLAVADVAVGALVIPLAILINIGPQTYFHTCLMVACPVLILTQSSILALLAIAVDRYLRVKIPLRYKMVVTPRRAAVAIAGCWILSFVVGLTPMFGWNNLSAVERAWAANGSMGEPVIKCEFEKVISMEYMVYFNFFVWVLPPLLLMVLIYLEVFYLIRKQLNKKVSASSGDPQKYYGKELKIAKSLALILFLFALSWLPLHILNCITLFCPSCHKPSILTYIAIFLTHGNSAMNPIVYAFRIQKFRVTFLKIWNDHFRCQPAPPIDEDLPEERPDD

[7] = molecular target: T2, human adenosine A2A receptor; test: cAMP assay in hA2A CHO cells, basal or with CGS 21680; assay type: cell-based; parameters: expressed in transfected cells; host or cells: CHO cells; conditions: for IC50: mean ± SEM
Procedure: For the membranes preparation the culture medium was removed, and the cells were washed with a saline phosphate-buffered solution collected with hypotonic buffer (5 mM Tris HCl, 1 mM EDTA, pH 7.4).
CHO cells transfected with the adenosine receptors were washed with a phosphate-buffered saline solution, detached with trypsin and centrifuged for 10 minutes at 200 g. […] The reaction was terminated by addition of cold 6% trichloroacetic acid (TCA). The TCA suspension was centrifuged at 2000 g for 10 minutes at 4° C. and the supernatant was extracted four times with diethyl ether with water. The final aqueous solution was tested for the cAMP levels by a competition protein binding assay with a cAMP-binding protein. The standard samples of cAMP (0-10 pmoli) were added to each test tube containing the incubation buffer (trizma base 0.1 M, aminophylline 8.0 mM, 2 mercaptoethanol 6.0 mM, pH 7.4) and [^3H]-cAMP. The binding protein previously prepared from beef adrenals, was added to the samples previously incubated at 4° C. for 150 minutes, and after the addition of charcoal were centrifuged at 2000 g for 10 min.
as §2

Female CD1 mice [8] = test: Warm-water tail immersion test; assay type: in vivo; conditions: intraperitoneal
Procedure: as §1
The warm-water tail immersion assay was performed using a water thermostated bath at a temperature maintained at 52° C. The compounds under evaluation were dissolved in DMSO and then diluted in saline solution. The carrier consists of saline solution and 5% of DMSO. Before intraperitoneally injecting the compound, the natural time of response of the mice was determined and the distal part of the tail was then immersed in the thermostated bath. The latency in responding to the heat stimulus with a vigorous flexion of the tail was measured by means of a manual stopwatch. A 20 seconds maximum cut-off time was imposed to prevent tissue damage. The latency of the tail withdrawal was then tested 15 minutes after injection of the compound.
as §2

[9] = CGS 21680 (10 nM), read-out: IC50 cAMP, in presence of CGS 21680
[10] = CGS 21680 (10 nM), read-out: Emax cAMP, in presence of CGS 21680
[11] = basal cAMP, read-out: IC50 cAMP, in absence of CGS 21680
[12] = efficacy versus basal cAMP production, read-out: Emax cAMP, in absence of CGS 21680

T2 sequence (P29274 whole entry): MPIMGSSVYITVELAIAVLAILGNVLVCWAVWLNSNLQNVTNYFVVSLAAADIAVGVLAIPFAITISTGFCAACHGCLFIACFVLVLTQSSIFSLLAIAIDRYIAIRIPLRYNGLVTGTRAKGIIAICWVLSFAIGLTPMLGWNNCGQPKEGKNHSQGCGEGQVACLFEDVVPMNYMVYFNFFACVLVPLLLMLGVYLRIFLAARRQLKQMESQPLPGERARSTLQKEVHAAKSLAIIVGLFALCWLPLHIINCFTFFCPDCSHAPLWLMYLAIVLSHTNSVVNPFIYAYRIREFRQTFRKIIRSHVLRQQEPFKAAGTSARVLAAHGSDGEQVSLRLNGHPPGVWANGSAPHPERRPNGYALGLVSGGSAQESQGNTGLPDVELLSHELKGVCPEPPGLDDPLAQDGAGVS

SMILES: CCNC(=O)[C@H]1O[C@@H](n2cnc3c(N)nc(NCCc4ccc(CCC(=O)O)cc4)nc32)[C@H](O)[C@@H]1O [CGS 21680, reference compound]
- Effect on proliferation of cancer cells ([1]; MRMT-1, CGS 21680 100 nM): able to increase the proliferation of the cancer cells

SMILES: COc1cccc(CNc2nc(N)c3nc(-c4ccco4)sc3n2)c1 [Compound 3, 2-(furan-2-yl)-N^5-(3-methoxybenzyl)[1,3]thiazolo[5,4-d]pyrimidin-5,7-diamine]
- Ki [2]: 92 ± 8 nM
- Ki [3]: 26 ± 2 nM
- IC50 [4]: 452 ± 42 nM
- Dose-response curve, Writhing Test (Female CD1 mice [5]): dose-dependent effect
- Anti-nociceptive activity, Writhing Test (Female CD1 mice [5]; intraperitoneal): potency similar to morphine
- Ki [6]: 8.16 ± 0.72 nM

SMILES: Nc1nc(NCc2ccco2)nc2sc(-c3ccco3)nc12 [Compound 5, 2-(furan-2-yl)-N^5-(furan-2-ylmethyl)[1,3]thiazolo[5,4-d]pyrimidin-5,7-diamine]
- Ki [2]: 4.72 ± 0.38 nM
- Ki [3]: 1.73 ± 0.15 nM
- IC50 [7, 9]: 0.04 ± 0.004 nM
- Emax [7, 10]: 133 ± 13%
- IC50 [7, 11]: 0.0016 ± 0.0002 nM
- Emax [7, 12]: 64%
- IC50 [4]: 82 ± 9 nM
- Effect on CGS 21680-induced proliferation of cancer cells [1]: able to reduce the proliferation of cancer cells
- Ki [6]: 38 ± 4 nM

SMILES: Nc1nc(NCc2cccs2)nc2sc(-c3ccco3)nc12 [Compound 6, 2-(furan-2-yl)-N^5-(thiophen-2-ylmethyl)[1,3]thiazolo[5,4-d]pyrimidin-5,7-diamine]
- Ki [2]: 6.43 ± 8 nM
- Ki [3]: 3.82 ± 0.31 nM
- IC50 [7, 9]: 0.036 ± 0.003 nM
- Emax [7, 10]: 132 ± 12%
- IC50 [7, 11]: 0.0017 ± 0.0002 nM
- Emax [7, 12]: 61%
- IC50 [4]: 75 ± 8 nM
- Effect on CGS 21680-induced proliferation of cancer cells [1]: able to reduce the proliferation of cancer cells
- Ki [6]: 12.5 ± 1.1 nM

SMILES: Nc1nc(NCc2cccnc2)nc2sc(-c3ccco3)nc12 [Compound 7, 2-(furan-2-yl)-N^5-(pyridin-3-ylmethyl)[1,3]thiazolo[5,4-d]pyrimidin-5,7-diamine]
- Ki [2]: 18.2 ± 1.7 nM
- Ki [3]: 0.68 ± 0.05 nM
- IC50 [7, 9]: 0.059 ± 0.006 nM
- Emax [7, 10]: 126 ± 12%
- IC50 [7, 11]: 0.011 ± 0.001 nM
- Emax [7, 12]: 61%
- IC50 [4]: 109 ± 11 nM
- Effect on CGS 21680-induced proliferation of cancer cells [1]: able to reduce the proliferation of cancer cells
- Ki [6]: 7.12 ± 0.65 nM

SMILES: Nc1nc(NCCc2cccs2)nc2sc(-c3ccco3)nc12 [Compound 10, 2-(furan-2-yl)-N^5-(2-(thiophen-2-yl)ethyl)[1,3]thiazolo[5,4-d]pyrimidin-5,7-diamine]
- Ki [2]: 65 ± 6 nM
- Ki [3]: 18 ± 2 nM
- IC50 [7, 9]: 0.045 ± 0.004 nM
- Emax [7, 10]: 138 ± 13%
- IC50 [7, 11]: 0.0064 ± 0.0005 nM
- Emax [7, 12]: 62%
- IC50 [4]: 112 ± 11 nM
- Effect on CGS 21680-induced proliferation of cancer cells [1]: able to reduce the proliferation of cancer cells
- Ki [6]: 4.92 ± 0.37 nM

SMILES: Nc1nc(NCCc2ccc(O)cc2)nc2nc(-c3ccco3)nn12 [ZM 241385, reference compound]
- Anti-nociceptive activity, tail immersion test (Female CD1 mice [8]): no effect up to 10 mg/kg
- Ki [2]: 683 ± 64 nM
- ED50 (Female CD1 mice [5]; Mus musculus, ip, intraperitoneal, 15 minutes before acetic acid): 1.37 ± 0.108 mg/kg
- Dose-response curve, Writhing Test (Female CD1 mice [5]): dose-dependent effect
